Measured values: patent publication US9975896B2, “Inhibitors of transcription factors and uses thereof” (Dana-Farber Cancer Institute, Inc., priority 2013, dated 2018)
Numbering of substitutions follows the chain as printed.

What was measured:
ATAD2A = biological target: T1, ATAD2A (Homo sapiens, UniProt Q6PL18); test: BromoScan selectivity panel (Kd); type: binding
T1 sequence (Q6PL18 981-1108 limits assumed): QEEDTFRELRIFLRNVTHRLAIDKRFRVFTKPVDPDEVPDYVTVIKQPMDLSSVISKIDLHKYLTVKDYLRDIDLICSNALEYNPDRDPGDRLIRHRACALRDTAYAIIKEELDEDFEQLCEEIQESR

ATAD2B = biological target: T2, ATAD2B (Homo sapiens, UniProt Q9ULI0); test: BromoScan selectivity panel (Kd); type: binding
T2 sequence (Q9ULI0 953-1085 limits assumed): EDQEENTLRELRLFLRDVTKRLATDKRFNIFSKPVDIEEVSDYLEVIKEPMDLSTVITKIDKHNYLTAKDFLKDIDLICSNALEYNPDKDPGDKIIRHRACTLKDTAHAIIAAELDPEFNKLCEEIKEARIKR

BAZ2A = biological target: T3, BAZ2A (Homo sapiens, UniProt Q9UIF9); test: BromoScan selectivity panel (Kd); type: binding
T3 sequence (Q9UIF9 1796-1899 limits assumed): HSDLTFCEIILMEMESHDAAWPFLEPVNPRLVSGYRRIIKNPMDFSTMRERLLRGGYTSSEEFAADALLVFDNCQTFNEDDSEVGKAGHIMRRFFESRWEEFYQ

BAZ2B = biological target: T4, BAZ2B (Homo sapiens, UniProt Q9UIF8); test: BromoScan selectivity panel (Kd); type: binding
T4 sequence (Q9UIF8 2054-2168 limits assumed): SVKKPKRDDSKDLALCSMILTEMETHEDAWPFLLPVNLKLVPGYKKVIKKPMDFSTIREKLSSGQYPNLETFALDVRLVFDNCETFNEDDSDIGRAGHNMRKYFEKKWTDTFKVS

BRD1 = biological target: T5, BRD1 (Homo sapiens, UniProt O95696); test: BromoScan selectivity panel (Kd); type: binding
T5 sequence (O95696 556-688 limits assumed): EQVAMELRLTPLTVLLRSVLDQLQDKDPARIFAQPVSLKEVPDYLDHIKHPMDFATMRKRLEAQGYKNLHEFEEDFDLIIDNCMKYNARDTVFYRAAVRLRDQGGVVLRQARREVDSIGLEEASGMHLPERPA

BRD9 = biological target: T6, BRD9 (Homo sapiens, UniProt Q9H8M2); test: BromoScan selectivity panel (Kd); type: binding
T6 sequence (Q9H8M2 130-250 limits assumed): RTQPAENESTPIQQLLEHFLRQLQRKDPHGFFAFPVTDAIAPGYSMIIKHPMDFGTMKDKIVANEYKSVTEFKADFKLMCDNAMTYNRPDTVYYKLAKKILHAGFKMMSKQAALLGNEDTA

BRDT(1) = biological target: T7, BRDT(1) (Homo sapiens, UniProt Q58F21); test: BromoScan selectivity panel (Kd); type: binding
T7 construct: the bromodomain-containing protein is BRDT(1)

BRDT(2) = BRDT(2) (Homo sapiens, UniProt Q58F21); test: BromoScan selectivity panel (Kd); type: binding
BRPF1 = biological target: T8, BRPF1 (Homo sapiens, UniProt P55201); test: BromoScan selectivity panel (Kd); type: binding
T8 sequence (P55201 626-740 limits assumed): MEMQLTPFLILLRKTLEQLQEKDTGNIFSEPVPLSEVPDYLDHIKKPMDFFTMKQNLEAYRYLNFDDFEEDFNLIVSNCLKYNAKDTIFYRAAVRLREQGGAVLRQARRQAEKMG

BRPF3 = biological target: T9, BRPF3 (Homo sapiens, UniProt Q9ULD4); test: BromoScan selectivity panel (Kd); type: binding
T9 sequence (Q9ULD4 589-693 limits assumed): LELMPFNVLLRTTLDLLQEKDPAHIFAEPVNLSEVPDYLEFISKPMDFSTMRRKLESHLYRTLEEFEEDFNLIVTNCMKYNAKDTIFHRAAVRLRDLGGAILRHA

EP300 = biological target: T10, EP300 (Homo sapiens, UniProt Q09472); test: BromoScan selectivity panel (Kd); type: binding
T10 sequence (Q09472 1040-1161 limits assumed): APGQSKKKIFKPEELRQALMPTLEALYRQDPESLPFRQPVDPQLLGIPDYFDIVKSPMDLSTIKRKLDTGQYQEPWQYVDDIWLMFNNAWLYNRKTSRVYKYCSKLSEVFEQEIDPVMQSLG

FALZ = FALZ (Homo sapiens, UniProt Q12830); test: BromoScan selectivity panel (Kd); type: binding
TAF1(2) = biological target: T11, TAF1(2) (Homo sapiens, UniProt P21675); test: BromoScan selectivity panel (Kd); type: binding
T11 construct: TAF1(2)
T11 sequence (P21675 1519-1628 limits assumed): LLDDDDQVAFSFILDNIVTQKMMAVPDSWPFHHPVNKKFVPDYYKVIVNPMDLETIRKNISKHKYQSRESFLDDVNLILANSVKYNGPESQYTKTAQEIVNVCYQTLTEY

TAF1L(2) = biological target: T12, TAF1L(2) (Homo sapiens, UniProt Q8IZX4); test: BromoScan selectivity panel (Kd); type: binding
T12 construct: TAF1L(2)
T12 sequence (Q8IZX4 1517-1626 limits assumed): T11 sequence (P21675 1519-1628 limits assumed) with V46M, M51V, V102I, L107I

TRIM24(PHD Bromo.) = biological target: T13, TRIM24(PHD Bromo.) (Homo sapiens, UniProt O15164); test: BromoScan selectivity panel (Kd); type: binding
T13 construct: TRIM24(PHD Bromo.)
T13 sequence (O15164 824-1006 limits assumed): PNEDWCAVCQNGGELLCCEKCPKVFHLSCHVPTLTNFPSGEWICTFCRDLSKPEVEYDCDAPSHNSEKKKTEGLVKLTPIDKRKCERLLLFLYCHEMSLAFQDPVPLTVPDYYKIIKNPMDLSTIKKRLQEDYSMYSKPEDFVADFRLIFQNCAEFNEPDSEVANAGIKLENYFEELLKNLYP

TRIM33(PHD Bromo.) = biological target: T14, TRIM33(PHD Bromo.) (Homo sapiens, UniProt Q9UPN9); test: BromoScan selectivity panel (Kd); type: binding
T14 construct: TRIM33(PHD, Bromo.); TRIM33(PHD Bromo.); fused on or other part: The vendor panel's detection tag or display handle
T14 sequence (Q9UPN9 1-1127): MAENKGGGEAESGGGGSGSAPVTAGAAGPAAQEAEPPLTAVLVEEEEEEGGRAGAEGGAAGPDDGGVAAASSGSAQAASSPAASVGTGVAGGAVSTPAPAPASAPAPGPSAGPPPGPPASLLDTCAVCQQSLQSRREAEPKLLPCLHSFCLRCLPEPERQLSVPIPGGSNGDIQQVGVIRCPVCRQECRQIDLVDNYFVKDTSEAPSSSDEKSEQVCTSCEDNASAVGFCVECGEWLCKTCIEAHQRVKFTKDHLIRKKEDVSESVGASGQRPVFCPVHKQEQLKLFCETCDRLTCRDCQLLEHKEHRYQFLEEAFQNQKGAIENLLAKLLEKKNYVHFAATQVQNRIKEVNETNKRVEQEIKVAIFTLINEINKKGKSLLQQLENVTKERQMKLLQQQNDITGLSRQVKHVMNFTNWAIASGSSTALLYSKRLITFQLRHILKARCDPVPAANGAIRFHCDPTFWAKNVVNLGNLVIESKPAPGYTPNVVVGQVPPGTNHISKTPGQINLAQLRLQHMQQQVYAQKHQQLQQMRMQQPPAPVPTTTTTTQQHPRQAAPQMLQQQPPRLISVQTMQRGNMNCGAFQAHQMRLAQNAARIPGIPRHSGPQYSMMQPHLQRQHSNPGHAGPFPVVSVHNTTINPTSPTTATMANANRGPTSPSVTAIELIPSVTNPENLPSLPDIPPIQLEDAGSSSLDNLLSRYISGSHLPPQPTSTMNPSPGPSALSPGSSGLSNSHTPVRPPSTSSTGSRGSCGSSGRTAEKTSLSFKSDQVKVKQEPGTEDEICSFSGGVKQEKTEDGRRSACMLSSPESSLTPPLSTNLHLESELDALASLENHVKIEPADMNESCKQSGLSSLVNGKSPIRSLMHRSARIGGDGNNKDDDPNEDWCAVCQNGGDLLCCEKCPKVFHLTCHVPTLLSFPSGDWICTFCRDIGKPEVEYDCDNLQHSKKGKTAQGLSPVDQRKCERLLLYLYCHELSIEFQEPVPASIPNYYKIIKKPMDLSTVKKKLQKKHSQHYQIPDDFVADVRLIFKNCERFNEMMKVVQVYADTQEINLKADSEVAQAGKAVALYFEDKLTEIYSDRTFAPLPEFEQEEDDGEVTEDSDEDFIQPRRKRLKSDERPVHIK

WDR9(2) = biological target: T15, WDR9(2) (Homo sapiens, UniProt Q9NSI6); test: BromoScan selectivity panel (Kd); type: binding
T15 construct: WDR9(2)

CBP [1] = biological target: T16, CBP (Homo sapiens, UniProt Q92793); test: BromoScan selectivity panel (Kd)
Target sequence in this assay (Q92793 1081-1197 limits assumed): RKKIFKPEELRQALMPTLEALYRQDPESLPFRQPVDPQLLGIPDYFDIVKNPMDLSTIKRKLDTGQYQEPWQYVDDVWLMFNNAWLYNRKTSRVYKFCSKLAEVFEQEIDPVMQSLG

[2] = tested on: lung carcinoma cell line H2171; test: Cellular IC50 in lung carcinoma cell line H2171; type: cell-based
Description: Cells (e.g., BRD4 dependant cells) were counted and adjusted to 60,000 cells/mL. Using a Biotek EL406, 50 μL of the cells in media were distributed into 384 well white plates from Thermo. Immediately after plating, compounds of the invention in DMSO were distributed to plates. For large plate sets, cells were returned to a 37° C. incubator while not in use. The compounds were added to plates using a 100 nL 384 well pin transfer manifold on a Janus workstation. Stocks were arrayed in 10 point quadruplicate dose response in DMSO stock in 384-well Greiner compound plates. After addition of the compounds, plates were incubated for three days in a 37° C. incubator. Cell viability was read out using ATPlite from Perkin Elmer. Plates were removed from the incubator and brought to room temperature prior to use. Lyophilized powder was resuspended in lysis buffer and diluted 1:2 with DI water. 25 μL of this solution was added to each well using the Biotek liquid handler. Plates were sealed with adherent aluminum seals prior to vortexing and spinning down at 1000 g for 1 minute. Plates were incubated for 15 minutes at room temperature before signal was read on an Envision Plate Reader.

CBP [3] = biological target: T16, CBP; test: In vitro AlphaScreen protein binding assay, CBP
Target sequence in this assay (Q92793 1085-1192 limits assumed): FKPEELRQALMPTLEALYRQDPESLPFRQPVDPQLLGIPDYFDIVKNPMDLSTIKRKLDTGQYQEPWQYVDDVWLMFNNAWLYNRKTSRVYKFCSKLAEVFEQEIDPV
Description: (§1) Assays were performed with minor modifications from the manufacturer's protocol (PerkinElmer, USA). All reagents were diluted in 50 mM HEPES, 150 mM NaCl, 0.1% w/v BSA, and 0.01% w/v Tween® 20 at pH 7.5 and allowed to equilibrate to room temperature prior to addition to plates. After addition of Alpha beads to master solutions, all subsequent steps were performed in low light conditions. […] After a 1000-rpm spin-down for 1 minute, 100 nL of the solutions of compounds of the invention in DMSO from stock plates were added by pin transfer using a Janus Workstation (PerkinElmer, USA). The streptavidin-coated donor beads (25 μg/ml final) were added as with previous solution in a 2×, 10 μL volume. Following this addition, the plates were sealed with foil to block light exposure and to prevent evaporation. The plates were spun down again at 1000 rpm for 1 minute. Next, the plates were incubated in the room with the plate reader (for temperature equilibration) for 1 hour prior to reading the assay. Signal is stable for up to 3 hours after donor bead addition.

[4] = tested on: BRD4-dependent Nut-Midline Carcinoma line 797; test: Cell viability (ATPlite) in BRD4 dependant cell line 797; conditions: Homo sapiens, read-out: 797--EC50 (μM)
BRD4 = BRD4 (Homo sapiens, UniProt O60885); test: In vitro AlphaScreen protein binding assay (competition with biotinylated JQ1)
Description: as §1

T15 sequence (Q9NSI6 1313-1418 limits assumed): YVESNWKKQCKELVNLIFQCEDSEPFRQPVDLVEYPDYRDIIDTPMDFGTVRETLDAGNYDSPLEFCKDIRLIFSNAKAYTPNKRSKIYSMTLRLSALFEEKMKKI

| Structure (SMILES) | Kd (ATAD2A) [µM] | Kd (ATAD2B) [µM] | Kd (BAZ2A) [µM] | Kd (BAZ2B) [µM] | Kd (BRD9) [µM] | Kd (BRPF1) [µM] | Kd (BRPF3) [µM] | Kd (EP300) [µM] | Kd (FALZ) [µM] | Kd (TRIM24(PHD Bromo.)) [µM] | Kd (TRIM33(PHD Bromo.)) [µM] | Kd (WDR9(2)) [µM] | Kd (CBP [1]) [µM] | further results |
| --- | --- | --- | --- | --- | --- | --- | --- | --- | --- | --- | --- | --- | --- | --- |
| CCNC(=O)C[C@@H]1N=C(c2ccc(Cl)cc2)c2cc(OC)ccc2-n2c(C)nnc21 [I-BET, reference compound] | ≥ 40 | ≥ 40 | ≥ 40 | ≥ 40 | ≥ 40 | ≥ 40 | ≥ 40 | 71 | ≥ 40 | ≥ 40 | ≥ 40 | ≥ 40 | 76 | Kd (BRD1): ≥ 40 µM; Kd (BRDT(1)): 160 nM; Kd (BRDT(2)): 45 nM; Kd (TAF1(2)): ≥ 40 µM; Kd (TAF1L(2)): ≥ 40 µM |
| Cc1sc2c(c1C)C(c1ccc(Cl)cc1)=NC(CC(=O)OC(C)(C)C)c1nnc(C)n1-2 (stereo not shown) [JQ1, reference compound] | ≥ 40 | ≥ 40 | ≥ 40 | ≥ 40 | ≥ 40 | ≥ 40 | ≥ 40 | 51 | ≥ 40 | ≥ 40 | ≥ 40 | ≥ 40 | 24 | – |
| CCOC(=O)[C@]1(C)N[C@H](c2ccc(-c3c(C)noc3C)cc2)[C@@H]2C(=O)N(CC)C(=O)[C@@H]21 [UMB17, (1R,3S,3aR,6aS)-ethyl 3-(4-(3,5-dimethylisoxazol-4-yl)phenyl)-5-ethyl-1-methyl-4,6-dioxooctahydropyrrolo[3,4-c]pyrrole-1-carboxylate] | – | – | – | – | – | – | – | – | – | – | – | – | – | IC50 ([2]; Homo sapiens, NCI-H2171, Table 2, cellular, lung carcinoma cell line H2171): 55 µM; cellular activity in H2171 ([2]; text b616): show cellular activity in H2171; IC50 (CBP [3]): 30 µM; EC50 [4]: 9.42 µM; IC50 (BRD4; BRD4--IC50 (μM), Table 5, biochemical): > 100 µM; IC50 (BRD4; BRD4 IC50 (μM), Table 2, AlphaScreen): 122 µM |
